Assay results reported in patent publication US8217013B2, “Polyene diester antibiotics” (priority 2007, dated 2012).
Where two headings read alike, the source gives them in different places.

Legend:
Assay in all cases: Test of antibacterial activity in vitro (bacteria-inhibition zone)
Assay type in all cases: cell-based
[1] = tested on: Candida albicans; settings: for zone of inhibition at 5.6 µg/mL: Candida albicans
Text: (§1) Test of Antibacterial Activity In Vitro
(§2) Experiment drugs: the polyene diester compounds prepared by examples 1-12
(§3) Control drugs: amphotericin B (standard product) • mycostatin (standard product) • natamycin (standard product)
2.1 Preparation of Candida albicans suspension: PHARMACOPOEIA OF THE PEOPLES REPUBLIC OF CHINA, second part, 2005 edition, appendix p 81-84.
(§4) Taking appropriate amount of the above mentioned amphotericin B, mycostatin, natamycin and the polyene diester compounds prepared by examples 1-8 and 10-12, dissolving in a little dimethyl sulfoxide respectively, using pH7 phosphate buffer to dilute into solution which is equivalent to contain amphotericin B, mycostatin, natamycin 280 Units per milliliter, taking 1 ml and using pH7 phosphate buffer to quantitatively dilute into solution which is equivalent to contain amphotericin B 1.4 μg/ml and 2.8 μg/ml, and is equivalent to contain 5.6 μg/ml of mycostatin and natamycin.
(§5) In addition, preparing the solution according to the same method, adding 40% defibered sheep serum, using pH7 phosphate buffer to quantitatively dilute into unit solution which is equivalent to contain amphotericin B 1.4 μg/ml and 2.8 μg/ml, and is equivalent to contain 5.6 μg/ml of mycostatin and natamycin. Testing according to PHARMACOPOEIA OF THE PEOPLES REPUBLIC OF CHINA, second part, 2005 edition, appendix XIA The Antibiotics Microorganism Test.
(§6) Medium: Improved Martin Agar Medium, PHARMACOPOEIA OF THE PEOPLES REPUBLIC OF CHINA, second part, 2005 edition, appendix p 84.
Test method: Double-plate counting method; […] bacteria bed 15 ml to replace the double layers, culture temperature: 37° C., time: 24 h; strain concentration: 1% […]

[2] = tested on: Candida mycoderma
Text: as §1, §2, §3
2.3 Preparation of Candida mycoderrna suspension: the method is as same as preparation of Saccharomyces cerevisiae suspension
as §4, §5, §6
(§7) Test method: Double-plate counting method; […] bacteria bed 15 ml to replace the double layers, culture temperature: 37° C., time: 24 h; strain concentration: 1%
(§8) Medium: Modified Martin Broth Medium

[3] = tested on: Saccharomyces cerevisiae; settings: for zone of inhibition at 5.6 µg/mL: Saccharomyces cerevisiae
Text: as §1, §2, §3
2.2 Preparation of Saccharomyces cerevisiae suspension: PHARMACOPOEIA OF THE PEOPLES REPUBLIC OF CHINA, second part, 2005 edition, appendix p 80, p 83.
as §4, §5, §6, §7, §8

[4] = 0 h, 2.8 μg/ml after conversion, no serum
[5] = 0 h, 2.8 μg/ml after conversion, serum added (40% defibered sheep serum)
[6] = 6 h, 2.8 μg/ml after conversion, no serum
[7] = 24 h, 2.8 μg/ml after conversion, no serum
[8] = 48 h, 2.8 μg/ml after conversion, no serum
[9] = 0 h, 5.6 μg/ml after conversion, serum added (40% defibered sheep serum)
[10] = 6 h, 5.6 μg/ml after conversion, serum added (40% defibered sheep serum)
[11] = 24 h, 5.6 μg/ml after conversion, serum added (40% defibered sheep serum)
[12] = 48 h, 5.6 μg/ml after conversion, serum added (40% defibered sheep serum)
[13] = 0 h, 5.6 μg/ml after conversion, no serum
[14] = 6 h, 5.6 μg/ml after conversion, no serum
[15] = 24 h, 5.6 μg/ml after conversion, no serum
[16] = 48 h, 5.6 μg/ml after conversion, no serum

Cc1oc(=O)oc1COC(=O)C1C(O)CC2(O)CC(O)CC(O)C(O)CCC(O)CC(O)CC(=O)OC(C)C(C)C(O)C(C)C=CC=CC=CC=CC=CC=CC=CC(OC3OC(C)C(O)C(N)C3O)CC1O2 (centres unmarked) [amphotericin B-5-methyl-1,3-dioxol-2-one-4-methyl ester]
diameter of the bacteria-inhibition zone, Candida albicans 0 h [1, 4]: ++ (9-12 mm: ++)
diameter of the bacteria-inhibition zone, Candida albicans 0 h [1, 5]: ++ (9-12 mm: ++)
diameter of the bacteria-inhibition zone, Candida albicans 6 h [1, 6]: ++ (9-12 mm: ++)
diameter of the bacteria-inhibition zone, Candida albicans 24 h [1, 7]: ++ (9-12 mm: ++)
diameter of the bacteria-inhibition zone, Candida albicans 48 h [1, 8]: ++ (9-12 mm: ++)
diameter of the bacteria-inhibition zone, Candida mycoderma 0 h [2, 4]: ++ (9-12 mm: ++)
diameter of the bacteria-inhibition zone, Candida mycoderma 0 h [2, 5]: ++ (9-12 mm: ++)
diameter of the bacteria-inhibition zone, Candida mycoderma 6 h [2, 6]: ++ (9-12 mm: ++)
diameter of the bacteria-inhibition zone, Candida mycoderma 24 h [2, 7]: ++ (9-12 mm: ++)
diameter of the bacteria-inhibition zone, Candida mycoderma 48 h [2, 8]: ++ (9-12 mm: ++)
diameter of the bacteria-inhibition zone, Saccharomyces cerevisiae 0 h [3, 4]: ++ (9-12 mm: ++)
diameter of the bacteria-inhibition zone, Saccharomyces cerevisiae 0 h [3, 5]: ++ (9-12 mm: ++)
diameter of the bacteria-inhibition zone, Saccharomyces cerevisiae 6 h [3, 6]: ++ (9-12 mm: ++)
diameter of the bacteria-inhibition zone, Saccharomyces cerevisiae 24 h [3, 7]: ++ (9-12 mm: ++)
diameter of the bacteria-inhibition zone, Saccharomyces cerevisiae 48 h [3, 8]: ++ (9-12 mm: ++)

CC1OC(OC2/C=C/C=C/C=C/C=C/CC/C=C/C=C/C(C)[C@@H](O)[C@@H](C)[C@H](C)OC(=O)CC(O)CC(O)CC(O)CCC(O)C(O)C[C@]3(O)CC(O)C(C(=O)O)C(C2)O3)C(O)C(N)C1O (some centres unmarked) [mycostatin, reference compound]
diameter of the bacteria-inhibition zone, Candida albicans 0 h [1, 9]: + (7-9 mm: +)
diameter of the bacteria-inhibition zone, Candida albicans 6 h [1, 10]: + (7-9 mm: +)
diameter of the bacteria-inhibition zone, Candida albicans 24 h [1, 11]: + (7-9 mm: +)
diameter of the bacteria-inhibition zone, Candida albicans 48 h [1, 12]: + (7-9 mm: +)
zone of inhibition at 5.6 µg/mL ([1]; 0 h, 5.6 μg/ml after conversion, no serum, read-out: diameter of the bacteria-inhibition zone, Candida albicans 0 h): 7 to 9 mm
zone of inhibition at 5.6 µg/mL ([1]; 6 h, 5.6 μg/ml after conversion, no serum, read-out: diameter of the bacteria-inhibition zone, Candida albicans 6 h): 7 to 9 mm
zone of inhibition at 5.6 µg/mL ([1]; 24 h, 5.6 μg/ml after conversion, no serum, read-out: diameter of the bacteria-inhibition zone, Candida albicans 24 h): 7 to 9 mm
zone of inhibition at 5.6 µg/mL ([1]; 48 h, 5.6 μg/ml after conversion, no serum, read-out: diameter of the bacteria-inhibition zone, Candida albicans 48 h): 7 to 9 mm
zone of inhibition at 5.6 µg/mL ([2]; 0 h, 5.6 μg/ml after conversion, no serum, read-out: diameter of the bacteria-inhibition zone, Candida mycoderma 0 h): 12 to 14 mm
zone of inhibition at 5.6 µg/mL ([2]; 6 h, 5.6 μg/ml after conversion, no serum, read-out: diameter of the bacteria-inhibition zone, Candida mycoderma 6 h): 12 to 14 mm
zone of inhibition at 5.6 µg/mL ([2]; 24 h, 5.6 μg/ml after conversion, no serum, read-out: diameter of the bacteria-inhibition zone, Candida mycoderma 24 h): 12 to 14 mm
zone of inhibition at 5.6 µg/mL ([2]; 48 h, 5.6 μg/ml after conversion, no serum, read-out: diameter of the bacteria-inhibition zone, Candida mycoderma 48 h): 12 to 14 mm
zone of inhibition at 5.6 µg/mL ([3]; 0 h, 5.6 μg/ml after conversion, no serum, read-out: diameter of the bacteria-inhibition zone, Saccharomyces cerevisiae 0 h): 14 to 16 mm
zone of inhibition at 5.6 µg/mL ([3]; 0 h, 5.6 μg/ml after conversion, serum added (40% defibered sheep serum), read-out: diameter of the bacteria-inhibition zone, Saccharomyces cerevisiae 0 h): 14 to 16 mm
zone of inhibition at 5.6 µg/mL ([3]; 6 h, 5.6 μg/ml after conversion, no serum, read-out: diameter of the bacteria-inhibition zone, Saccharomyces cerevisiae 6 h): 14 to 16 mm
zone of inhibition at 5.6 µg/mL ([3]; 6 h, 5.6 μg/ml after conversion, serum added (40% defibered sheep serum), read-out: diameter of the bacteria-inhibition zone, Saccharomyces cerevisiae 6 h): 14 to 16 mm
zone of inhibition at 5.6 µg/mL ([3]; 24 h, 5.6 μg/ml after conversion, no serum, read-out: diameter of the bacteria-inhibition zone, Saccharomyces cerevisiae 24 h): 14 to 16 mm
zone of inhibition at 5.6 µg/mL ([3]; 24 h, 5.6 μg/ml after conversion, serum added (40% defibered sheep serum), read-out: diameter of the bacteria-inhibition zone, Saccharomyces cerevisiae 24 h): 14 to 16 mm
zone of inhibition at 5.6 µg/mL ([3]; 48 h, 5.6 μg/ml after conversion, no serum, read-out: diameter of the bacteria-inhibition zone, Saccharomyces cerevisiae 48 h): 14 to 16 mm
zone of inhibition at 5.6 µg/mL ([3]; 48 h, 5.6 μg/ml after conversion, serum added (40% defibered sheep serum), read-out: diameter of the bacteria-inhibition zone, Saccharomyces cerevisiae 48 h): 14 to 16 mm

CCOC(=O)OC(C)OC(=O)[C@H]1[C@@H]2C[C@@H](O[C@@H]3OC(C)[C@@H](O)[C@@H](N)[C@H]3O)/C=C/C=C/C=C/C=C/C[C@@H](C)OC(=O)/C=C/[C@H]3O[C@@H]3C[C@H](O)C[C@](O)(C[C@@H]1O)O2 (some centres unmarked) [natamycin ethoxycarbonyloxyethyl ester]
diameter of the bacteria-inhibition zone, Candida albicans 0 h [1, 13]: + (7-9 mm: +)
diameter of the bacteria-inhibition zone, Candida albicans 0 h [1, 9]: + (7-9 mm: +)
diameter of the bacteria-inhibition zone, Candida albicans 6 h [1, 14]: + (7-9 mm: +)
diameter of the bacteria-inhibition zone, Candida albicans 6 h [1, 10]: ++ (9-12 mm: ++)
diameter of the bacteria-inhibition zone, Candida albicans 24 h [1, 15]: + (7-9 mm: +)
diameter of the bacteria-inhibition zone, Candida albicans 24 h [1, 11]: ++ (9-12 mm: ++)
diameter of the bacteria-inhibition zone, Candida albicans 48 h [1, 16]: + (7-9 mm: +)
diameter of the bacteria-inhibition zone, Candida albicans 48 h [1, 12]: ++ (9-12 mm: ++)
diameter of the bacteria-inhibition zone, Candida mycoderma 0 h [2, 13]: + (7-9 mm: +)
diameter of the bacteria-inhibition zone, Candida mycoderma 0 h [2, 9]: + (7-9 mm: +)
diameter of the bacteria-inhibition zone, Candida mycoderma 6 h [2, 14]: + (7-9 mm: +)
diameter of the bacteria-inhibition zone, Candida mycoderma 6 h [2, 10]: ++ (9-12 mm: ++)
diameter of the bacteria-inhibition zone, Candida mycoderma 24 h [2, 15]: + (7-9 mm: +)
diameter of the bacteria-inhibition zone, Candida mycoderma 48 h [2, 16]: + (7-9 mm: +)
diameter of the bacteria-inhibition zone, Saccharomyces cerevisiae 0 h [3, 13]: + (7-9 mm: +)
diameter of the bacteria-inhibition zone, Saccharomyces cerevisiae 0 h [3, 9]: + (7-9 mm: +)
diameter of the bacteria-inhibition zone, Saccharomyces cerevisiae 6 h [3, 14]: + (7-9 mm: +)
diameter of the bacteria-inhibition zone, Saccharomyces cerevisiae 6 h [3, 10]: ++ (9-12 mm: ++)
diameter of the bacteria-inhibition zone, Saccharomyces cerevisiae 24 h [3, 15]: + (7-9 mm: +)
diameter of the bacteria-inhibition zone, Saccharomyces cerevisiae 48 h [3, 16]: + (7-9 mm: +)

Natamycin methyl pivalate
diameter of the bacteria-inhibition zone, Candida albicans 0 h [1, 13]: + (7-9 mm: +)
diameter of the bacteria-inhibition zone, Candida albicans 0 h [1, 9]: + (7-9 mm: +)
diameter of the bacteria-inhibition zone, Candida albicans 6 h [1, 14]: + (7-9 mm: +)
diameter of the bacteria-inhibition zone, Candida albicans 6 h [1, 10]: ++ (9-12 mm: ++)
diameter of the bacteria-inhibition zone, Candida albicans 24 h [1, 15]: + (7-9 mm: +)
diameter of the bacteria-inhibition zone, Candida albicans 24 h [1, 11]: ++ (9-12 mm: ++)
diameter of the bacteria-inhibition zone, Candida albicans 48 h [1, 16]: + (7-9 mm: +)
diameter of the bacteria-inhibition zone, Candida albicans 48 h [1, 12]: ++ (9-12 mm: ++)
diameter of the bacteria-inhibition zone, Candida mycoderma 0 h [2, 13]: ++ (9-12 mm: ++)
diameter of the bacteria-inhibition zone, Candida mycoderma 0 h [2, 9]: ++ (9-12 mm: ++)
diameter of the bacteria-inhibition zone, Candida mycoderma 6 h [2, 14]: ++ (9-12 mm: ++)
diameter of the bacteria-inhibition zone, Candida mycoderma 24 h [2, 15]: ++ (9-12 mm: ++)
diameter of the bacteria-inhibition zone, Candida mycoderma 48 h [2, 16]: ++ (9-12 mm: ++)
diameter of the bacteria-inhibition zone, Saccharomyces cerevisiae 0 h [3, 13]: + (7-9 mm: +)
diameter of the bacteria-inhibition zone, Saccharomyces cerevisiae 0 h [3, 9]: + (7-9 mm: +)
diameter of the bacteria-inhibition zone, Saccharomyces cerevisiae 6 h [3, 14]: + (7-9 mm: +)
diameter of the bacteria-inhibition zone, Saccharomyces cerevisiae 6 h [3, 10]: ++ (9-12 mm: ++)
diameter of the bacteria-inhibition zone, Saccharomyces cerevisiae 24 h [3, 15]: + (7-9 mm: +)
diameter of the bacteria-inhibition zone, Saccharomyces cerevisiae 48 h [3, 16]: + (7-9 mm: +)
